Calls of active or inactive are those of the source.
How the values were obtained:
[1] = biological target: T1, Ubiquitin-conjugating enzyme E2 N (Homo sapiens, UniProt P61088); type: functional;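 also: Dose-response confirmation in a TR-FRET assay detecting UBC13-driven polyubiquitin chain formation, inhibition measured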
T1 sequence (P61088 whole entry): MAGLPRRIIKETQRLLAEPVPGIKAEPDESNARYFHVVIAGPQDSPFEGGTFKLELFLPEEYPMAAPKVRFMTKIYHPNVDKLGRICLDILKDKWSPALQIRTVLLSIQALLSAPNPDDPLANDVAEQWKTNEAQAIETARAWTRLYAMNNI

[2] = luciferase reporter signal suppression in cells – H4 neuroglioma cells, luminescence, dose response (AID 1990); type: functional, cell-based
[3] = biological target: T2, RNA-binding protein pos-1 (Caenorhabditis elegans, UniProt G5EF15); assay: disruptors of C. elegans POS-1 RNA interaction – biochemical, fluorescence polarization, dose response (AID 1964);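 also: purified POS-1 fused to maltose binding protein made in E. coli; potency of compounds blocking POS-1 binding to fluorescent RNA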
T2 sequence (G5EF15 whole entry): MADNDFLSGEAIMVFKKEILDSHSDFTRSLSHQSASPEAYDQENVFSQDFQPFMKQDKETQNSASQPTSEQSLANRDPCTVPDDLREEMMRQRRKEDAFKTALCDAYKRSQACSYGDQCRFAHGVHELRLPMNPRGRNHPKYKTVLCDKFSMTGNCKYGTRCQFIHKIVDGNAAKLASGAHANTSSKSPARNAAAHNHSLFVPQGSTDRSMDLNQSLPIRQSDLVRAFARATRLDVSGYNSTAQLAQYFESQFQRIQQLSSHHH

[4] = Luminescence Cell-Based Dose Response HTS to Identify Inhibitors of 5'UTR Stem-Loop Driven Prion Protein mRNA Translation in H4 Neuroglioblastoma Cells. [Related pubchem assays: 1827 (Project Summary), 1813 (Primary HTS)]; type: functional
[5] = biological target: T3, Zinc finger protein mex-5 (Caenorhabditis elegans, UniProt Q9XUB2); assay: potency of MEX-5 RNA-binding blockers – biochemical, C. elegans, fluorescence polarization, dose response (AID 1960)
T3 sequence (Q9XUB2 whole entry): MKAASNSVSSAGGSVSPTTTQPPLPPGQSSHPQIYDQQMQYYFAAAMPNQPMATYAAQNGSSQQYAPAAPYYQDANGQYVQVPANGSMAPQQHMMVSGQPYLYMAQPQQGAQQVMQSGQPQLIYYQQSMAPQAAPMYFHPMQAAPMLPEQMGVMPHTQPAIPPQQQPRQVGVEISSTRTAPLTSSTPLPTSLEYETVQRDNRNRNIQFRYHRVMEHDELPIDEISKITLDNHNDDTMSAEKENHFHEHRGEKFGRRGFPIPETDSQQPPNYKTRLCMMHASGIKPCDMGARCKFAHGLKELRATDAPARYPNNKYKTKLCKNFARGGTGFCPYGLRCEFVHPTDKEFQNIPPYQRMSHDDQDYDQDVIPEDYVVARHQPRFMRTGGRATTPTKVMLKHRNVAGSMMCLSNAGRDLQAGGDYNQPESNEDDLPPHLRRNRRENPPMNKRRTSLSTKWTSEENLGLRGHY

[6] = alpha-synuclein stem-loop luciferase translation blockers – H4 neuroglioma cells, luminescence, confirmation (AID 1988); type: functional, cell-based
[7] = biological target: T4, Replicative DNA helicase DnaB (Mycobacterium tuberculosis, UniProt P9WMR3); assay: DnaB intein splicing inhibitors, dose response, biochemical, cell-free fluorescence (AID 449749); type: functional
T4 sequence (P9WMR3 whole entry): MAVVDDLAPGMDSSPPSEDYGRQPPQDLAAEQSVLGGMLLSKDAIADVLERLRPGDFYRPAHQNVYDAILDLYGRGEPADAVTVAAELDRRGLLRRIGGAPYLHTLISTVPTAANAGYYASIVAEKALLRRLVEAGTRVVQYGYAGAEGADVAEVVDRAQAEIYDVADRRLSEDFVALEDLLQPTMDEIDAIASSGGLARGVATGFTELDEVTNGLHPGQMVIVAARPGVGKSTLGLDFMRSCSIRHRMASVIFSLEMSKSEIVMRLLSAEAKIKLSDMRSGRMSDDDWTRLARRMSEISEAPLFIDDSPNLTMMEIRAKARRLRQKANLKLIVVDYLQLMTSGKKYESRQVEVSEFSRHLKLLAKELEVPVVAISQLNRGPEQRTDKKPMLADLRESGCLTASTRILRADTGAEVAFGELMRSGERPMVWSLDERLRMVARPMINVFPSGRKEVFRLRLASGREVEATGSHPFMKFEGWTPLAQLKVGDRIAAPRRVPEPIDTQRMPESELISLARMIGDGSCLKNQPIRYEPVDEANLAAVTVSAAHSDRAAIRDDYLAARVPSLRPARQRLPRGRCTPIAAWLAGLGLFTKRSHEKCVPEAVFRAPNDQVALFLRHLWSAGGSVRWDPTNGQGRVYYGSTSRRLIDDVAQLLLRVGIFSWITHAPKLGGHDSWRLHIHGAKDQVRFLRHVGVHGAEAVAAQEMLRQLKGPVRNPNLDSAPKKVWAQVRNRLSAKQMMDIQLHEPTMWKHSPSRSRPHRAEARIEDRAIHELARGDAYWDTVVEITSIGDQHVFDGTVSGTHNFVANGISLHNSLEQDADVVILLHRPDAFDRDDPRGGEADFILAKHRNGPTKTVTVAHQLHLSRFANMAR

[8] = biological target: T5, Protein RecA (Mycobacterium tuberculosis, UniProt P9WHJ3); assay: Fluorescence Cell-Free Homogeneous Dose Retest to Identify Inhibitors of RecA-Intein Splicing Activity. [Related pubchem assays (depositor defined):AID2097, AID2223, AID489010, AID492950]; type: functional
T5 sequence (P9WHJ3 whole entry): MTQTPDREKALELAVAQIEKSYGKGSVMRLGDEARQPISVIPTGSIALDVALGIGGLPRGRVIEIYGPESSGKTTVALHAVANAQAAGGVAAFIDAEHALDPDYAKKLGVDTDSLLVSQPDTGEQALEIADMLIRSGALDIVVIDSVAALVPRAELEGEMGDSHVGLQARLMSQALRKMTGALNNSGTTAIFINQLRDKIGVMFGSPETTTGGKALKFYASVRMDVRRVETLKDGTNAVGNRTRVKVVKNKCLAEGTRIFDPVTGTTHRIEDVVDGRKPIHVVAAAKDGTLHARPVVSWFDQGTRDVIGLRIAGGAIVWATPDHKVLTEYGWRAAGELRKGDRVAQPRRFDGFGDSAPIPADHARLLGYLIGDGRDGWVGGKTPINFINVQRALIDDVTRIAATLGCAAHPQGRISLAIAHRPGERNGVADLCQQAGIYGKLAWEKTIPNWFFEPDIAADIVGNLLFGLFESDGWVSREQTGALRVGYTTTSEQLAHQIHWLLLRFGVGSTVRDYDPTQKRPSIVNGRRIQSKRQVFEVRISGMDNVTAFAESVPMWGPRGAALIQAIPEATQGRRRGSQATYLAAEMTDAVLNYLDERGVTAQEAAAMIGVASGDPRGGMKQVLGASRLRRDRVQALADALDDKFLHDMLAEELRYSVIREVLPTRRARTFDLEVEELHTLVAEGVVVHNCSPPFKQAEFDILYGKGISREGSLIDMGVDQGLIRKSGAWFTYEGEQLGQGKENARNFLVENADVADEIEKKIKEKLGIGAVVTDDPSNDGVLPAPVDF

[9] = biological target: FAD-linked sulfhydryl oxidase ALR (Homo sapiens, UniProt P55789); assay: ALR-catalysed DTT oxidation blockers – biochemical, H2O2 detection, luminescence, cherry-pick, dose response (AID 493248)
[10] = biological target: T6, Rac GTPase-activating protein 1 (Homo sapiens, UniProt Q9H0H5); assay: blockers of MgcRacGAP-driven Rac1 GTP hydrolysis – biochemical, ADP Hunter fluorescence, primary and confirmatory, confirmation (AID 624330); type: functional
T6 sequence (Q9H0H5 whole entry): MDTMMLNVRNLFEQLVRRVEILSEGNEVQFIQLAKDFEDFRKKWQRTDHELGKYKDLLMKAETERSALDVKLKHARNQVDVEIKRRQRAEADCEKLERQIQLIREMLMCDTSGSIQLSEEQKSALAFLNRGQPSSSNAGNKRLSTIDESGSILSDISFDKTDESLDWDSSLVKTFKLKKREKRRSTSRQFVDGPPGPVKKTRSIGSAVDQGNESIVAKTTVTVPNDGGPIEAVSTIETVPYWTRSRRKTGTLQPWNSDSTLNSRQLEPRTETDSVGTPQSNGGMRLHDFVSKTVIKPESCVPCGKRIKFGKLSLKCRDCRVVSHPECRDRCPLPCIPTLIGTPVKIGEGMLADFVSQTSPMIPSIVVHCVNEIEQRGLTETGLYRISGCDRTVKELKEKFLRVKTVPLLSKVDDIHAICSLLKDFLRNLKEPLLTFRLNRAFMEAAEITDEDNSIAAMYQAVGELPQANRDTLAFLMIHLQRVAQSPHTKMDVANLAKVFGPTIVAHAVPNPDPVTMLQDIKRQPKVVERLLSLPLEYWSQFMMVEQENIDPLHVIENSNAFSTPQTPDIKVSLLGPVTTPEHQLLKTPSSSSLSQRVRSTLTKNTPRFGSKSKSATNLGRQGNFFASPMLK

[11] = cells; type: functional
[12] = biological target: Genome polyprotein (dengue virus type 2, UniProt P29990); assay: flavivirus cap methylation enzyme inhibition – biochemical, confirmation dose response, primary screen (AID 588689); type: functional
[13] = biological target: Large T antigen (Simian virus 40, UniProt P03070); type: functional, Betapolyomavirus macacae;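 also: Confirmatory-stage PubChem screen for compounds that inhibit SV40 T antigen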
[14] = Trypanosoma cruzi growth suppression in host cells – NIH3T3 host cells, beta-gal luminescence, confirmation (AID 2044); type: functional, cell-based;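 also: intracellular parasites grown in NIH/3T3 mouse fibroblasts as host cells; luminescent beta-galactosidase reporter signal from transgenic T. cruzi replicating inside host cells; inhibitors lower the luminescence signal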
[15] = NIH3T3 cell viability loss – ATP luminescence, mouse fibroblasts, counter-screen, dose response (AID 2010); type: functional, cell-based;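 also: cells exposed to compound for about 90 hours before reading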
[16] = tested on: INS1; assay: INS-1E survival protection against cytokine death – cell-based, luminescence, retest, dose response (AID 449756); type: functional; conditions: Rattus norvegicus;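 also: cell death triggered by IL-1 beta plus TNF-alpha plus IFN-gamma mixture; protective hits raise ATP signal compared with cytokine alone wells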
[17] = biological target: T7, Polyadenylate-binding protein 1 (Homo sapiens, UniProt P11940); assay: MLLE binding blockers, Cy5 peptide tracer – biochemical, fluorescence polarization, Cy5-PAM2 peptide, secondary, miRNA deadenylation inhibitor project, dose response (AID 602260); type: functional; conditions: read-out: IC50_Mean
[18] = biological target: T7, Polyadenylate-binding protein 1; assay: MLLE domain peptide-binding blockers, IC50 – biochemical, fluorescence polarization, FITC-PAM2 peptide, dose response (AID 602259); type: functional; conditions: read-out: IC50_Mean

Chain of FAD-linked sulfhydryl oxidase ALR (P55789 whole entry): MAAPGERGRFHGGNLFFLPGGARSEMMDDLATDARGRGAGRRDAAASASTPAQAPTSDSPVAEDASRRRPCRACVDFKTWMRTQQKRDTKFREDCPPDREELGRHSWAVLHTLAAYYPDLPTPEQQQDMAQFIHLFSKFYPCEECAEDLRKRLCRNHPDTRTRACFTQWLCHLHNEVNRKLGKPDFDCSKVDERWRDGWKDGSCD
Chain of Large T antigen (P03070 whole entry): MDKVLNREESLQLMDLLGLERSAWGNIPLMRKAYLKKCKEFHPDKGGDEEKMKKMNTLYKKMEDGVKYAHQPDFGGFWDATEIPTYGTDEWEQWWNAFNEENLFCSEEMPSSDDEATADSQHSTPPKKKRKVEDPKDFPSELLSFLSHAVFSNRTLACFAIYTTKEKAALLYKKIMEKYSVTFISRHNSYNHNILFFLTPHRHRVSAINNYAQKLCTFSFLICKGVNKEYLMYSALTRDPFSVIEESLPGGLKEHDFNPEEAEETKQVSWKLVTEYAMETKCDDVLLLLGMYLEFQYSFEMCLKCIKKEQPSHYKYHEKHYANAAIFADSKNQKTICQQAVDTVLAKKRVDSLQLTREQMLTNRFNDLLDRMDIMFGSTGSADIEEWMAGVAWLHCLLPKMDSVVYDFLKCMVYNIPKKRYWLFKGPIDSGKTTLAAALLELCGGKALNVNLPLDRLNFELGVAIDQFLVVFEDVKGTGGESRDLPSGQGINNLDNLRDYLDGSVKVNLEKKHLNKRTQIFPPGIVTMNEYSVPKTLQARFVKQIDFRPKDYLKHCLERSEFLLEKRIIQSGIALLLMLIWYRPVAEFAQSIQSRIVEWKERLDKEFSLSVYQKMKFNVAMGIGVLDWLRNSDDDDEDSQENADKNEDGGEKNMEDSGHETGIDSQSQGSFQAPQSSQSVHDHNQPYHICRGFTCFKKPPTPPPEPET
Chain of Genome polyprotein (P29990 2492-3391 limits assumed): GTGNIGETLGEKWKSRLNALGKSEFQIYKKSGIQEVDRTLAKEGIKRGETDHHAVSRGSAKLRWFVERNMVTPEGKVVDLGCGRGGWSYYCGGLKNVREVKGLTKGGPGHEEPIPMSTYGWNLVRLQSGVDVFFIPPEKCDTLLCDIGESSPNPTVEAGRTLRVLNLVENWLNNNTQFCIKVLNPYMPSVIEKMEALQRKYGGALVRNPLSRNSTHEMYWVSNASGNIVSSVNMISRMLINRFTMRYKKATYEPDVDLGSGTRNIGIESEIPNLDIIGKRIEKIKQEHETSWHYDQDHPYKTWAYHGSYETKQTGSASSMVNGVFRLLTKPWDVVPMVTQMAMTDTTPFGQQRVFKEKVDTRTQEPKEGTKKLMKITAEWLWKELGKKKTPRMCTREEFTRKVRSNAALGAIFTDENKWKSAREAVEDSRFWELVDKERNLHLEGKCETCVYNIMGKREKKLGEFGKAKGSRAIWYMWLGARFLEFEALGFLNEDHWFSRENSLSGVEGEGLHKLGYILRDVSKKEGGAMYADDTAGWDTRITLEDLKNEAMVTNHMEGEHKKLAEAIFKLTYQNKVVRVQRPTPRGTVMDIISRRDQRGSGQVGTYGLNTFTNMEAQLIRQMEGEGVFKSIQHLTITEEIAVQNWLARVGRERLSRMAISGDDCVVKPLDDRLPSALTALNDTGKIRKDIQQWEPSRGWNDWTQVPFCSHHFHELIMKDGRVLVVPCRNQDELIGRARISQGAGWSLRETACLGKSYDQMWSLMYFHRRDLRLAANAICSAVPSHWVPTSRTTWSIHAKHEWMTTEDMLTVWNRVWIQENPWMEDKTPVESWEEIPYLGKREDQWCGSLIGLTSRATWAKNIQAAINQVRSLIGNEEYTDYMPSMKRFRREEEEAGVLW
T7 sequence (P11940 whole entry, the tested form may be a part): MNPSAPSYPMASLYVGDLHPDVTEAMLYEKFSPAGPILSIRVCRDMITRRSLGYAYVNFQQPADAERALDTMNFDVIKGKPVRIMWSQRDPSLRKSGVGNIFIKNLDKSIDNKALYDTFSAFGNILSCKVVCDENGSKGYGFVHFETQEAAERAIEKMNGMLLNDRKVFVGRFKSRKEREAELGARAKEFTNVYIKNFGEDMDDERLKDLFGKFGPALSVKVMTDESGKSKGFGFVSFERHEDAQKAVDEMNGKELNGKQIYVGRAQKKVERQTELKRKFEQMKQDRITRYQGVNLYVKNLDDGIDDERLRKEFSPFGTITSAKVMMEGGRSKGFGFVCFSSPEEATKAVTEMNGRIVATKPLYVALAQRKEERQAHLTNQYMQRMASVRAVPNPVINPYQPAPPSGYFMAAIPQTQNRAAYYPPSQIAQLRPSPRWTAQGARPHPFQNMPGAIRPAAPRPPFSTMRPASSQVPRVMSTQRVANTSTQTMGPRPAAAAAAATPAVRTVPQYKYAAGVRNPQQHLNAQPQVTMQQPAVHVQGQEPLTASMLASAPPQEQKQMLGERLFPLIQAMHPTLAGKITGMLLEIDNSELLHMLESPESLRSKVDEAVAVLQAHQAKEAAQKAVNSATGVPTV

## O=C(CCCn1c(=S)[nH]c2ccsc2c1=O)NCCc1ccccc1
[1]
  IC50: > 20 µM (inactive)

## CCN(CC)C(=O)CSc1nnc2nnc3cc(OC)ccc3n12
[2]
  EC50: 14.9 µM (active)
[3]
  EC50: 7.7 µM (active)
[4]
  EC50: > 120 µM (not active)
[5]
  EC50: 5.43 µM (active)
[6]
  EC50: 10.8 µM (active)
[7]
  AC50: > 380 µM (inactive)
[8]
  EC50: 128 µM (active)

## CC1CN(S(=O)(=O)c2cccc(C(=O)N(Cc3nnc(-c4ccccc4Cl)o3)C3CC3)c2)CC(C)O1 (stereo not drawn)
[1]
  IC50: > 20 µM (inactive)

## O=C(NCc1ccccn1)c1ccc2c(c1)N(Cc1ccccc1)CCS2
[9]
  AC50: 0.511 µM (active)

## CC(=O)Nc1ccc(S(=O)(=O)Nc2ccc(Nc3ccccc3)cc2)cc1
[9]
  AC50: 0.268 µM (active)
[10]
  IC50: 70.1 µM (active)

## O=C(CN1CCOCC1)N/N=C/c1ccc(-c2ccc(Br)cc2)o1
[11]
  IC50: > 50 µM (active)

## Cc1cc(C)cc(OC(=O)CCN2C(=O)c3ccccc3C2=O)c1
[11]
  IC50: > 50 µM (active)

## Cc1ccc(C(C2C(=O)CC(C)(C)CC2=O)C2C(=O)CC(C)(C)CC2=O)s1
[12]
  IC50: 46.4 µM (active)

## O=C(NCC(c1ccco1)N1CCc2ccccc21)c1ccccc1 (stereo not drawn)
[9]
  AC50: 1.21 µM (active)

## Clc1ccc2nc(N3CCCCC3)[nH]c2c1
[9]
  AC50: 4.04 µM (active)

## C=CCn1c(SCc2ccc(Cl)cc2)nc2cc(C(=O)N3CCC(C(N)=O)CC3)ccc2c1=O
[1]
  IC50: > 20 µM (inactive)

## Cc1ccc(S(=O)(=O)Nc2nc(C)cc(N/N=C/c3ccc(O)cc3)n2)cc1
[13]
  IC50: 10.6 µM (active)

## O=C(NCC(c1cccnc1)N1CCN(c2ccc(F)cc2)CC1)c1ccco1 (stereo not drawn)
[14]
  EC50: 0.46 µM (active)
[15]
  EC50: > 60 µM (inconclusive)
[9]
  AC50: 4.66 µM (active)

## CCc1cc(SC#N)cc(C)c1NC(=O)CCl
[13]
  IC50: > 100 µM (active)
[16]
  AC50: 5.76 µM (active)
[17]
  IC50: > 66 µM (inactive)
[18]
  IC50: > 66 µM (inactive)

## COc1cc(C(=O)Nc2ccc(O)cc2)ccc1OC(C)=O
[13]
  IC50: 6.12 µM (active)

## CCN(CC)c1ccc(NC(=O)c2cccnc2)cc1
[13]
  IC50: 13.5 µM (active)
[9]
  AC50: 0.327 µM (active)

## COc1cc(/C=N/N(C)C)ccc1OC(=O)c1cccs1
[11]
  IC50: 24.2 µM (active)

## O=C(Nc1ccccc1N1CCCC1)c1ccc(N2CCCC2=O)cc1
[9]
  AC50: 1.55 µM (active)

## COc1ccc(/C=C2\C(=O)ON=C2c2ccccc2)cc1OC
[12]
  IC50: 95.4 µM (active)

## Cc1nnc(N/N=C/c2ccc(Br)cc2)n1N
[11]
  IC50: 2.75 µM (active)

## CC(=O)Nc1ccc(Nc2nc3ccccc3nc2NS(=O)(=O)c2ccccc2)cc1
[9]
  AC50: 0.13 µM (active)

## COc1ccc(C(=O)NN=C(C)/C=C(\O)c2ccccc2)cc1
[11]
  IC50: > 50 µM (active)

## CCCc1nc2[nH]c(C)c(NS(=O)(=O)c3ccc(C4CCCCC4)cc3)c(=O)n2n1
[12]
  IC50: 61.1 µM (active)

## COc1cc(/C=C2\NC(=S)N(C)C2=O)ccc1O
[13]
  IC50: 3.22 µM (active)

## Cc1cc2c(Nc3ccc(O)cc3)ncnc2s1
[13]
  IC50: 5.5 µM (active)
